Results taken from patent US7364759B2, “Skin whitening compositions containing black cohosh extract” (Access Business Group International LLC, priority 2003, dated 2008).

Tested on: mouse derived immortalized melanocyte cells (M3)
Test: Suppression of melanogenesis in vitro (modified Dooley assay)
Assay type: cell-based
Details: treatment dose 0.100%; treated days 1, 3, 5; melanin extracted day 6, OD 405 nm

O=C1O[C@H]([C@@H](O)CO)C(O)=C1O [Ascorbic Acid] was tested, and the “% Control Melanin” value was 51%.
